Laboratory results taken from patent US12240844B2 (Voronoi, Inc., priority 2019, dated 2025).

Legend:
IL-6 = IL-6 secretion inhibition in LPS-treated THP-1 cells (ELISA); format: cell-based; details: Homo sapiens, compound 0.5 μM, LPS 500 ng/ml, 24 hours, read-out: THP1/IL6 (% inhib)
Procedure: (§1) In order to evaluate the cytokine secretion inhibitory efficacy of mononuclear cells, THP-1 cells (ATCC, #TIB-202) as a human-derived monocyte cell line were cultured in RPMI-1640 (Hyclone, SH30027.01) media in which 10% fetal bovine serum (Hyclone, SH30084.03), 1% penicillin streptomycin (Welgene, LS202-02) and 50 μM 2-Mercaptoethanol (Gibco, #21985023) were contained. In the test, 1.5-2×10^5 cells/250 μl per each well were dispensed in a 48-well plate (SPL, #30048) and incubated in an incubator at 37° C. and 5% CO2 for 16 hours, and then the compounds were diluted in DMSO so that the final concentration was 0.5 μM. It was treated with Lipopolysaccharides (LPS) (sigma, #L6529) […]. After treatment with the compound, the LPS was treated so that the final concentration was 500 ng/ml, and then the cell culture fluid was collected after culturing for 24 hours, and the degrees of the cytokines IL-6 (R&D system, #D6050) and TNF-α (R&D system, #DTA00D) contained in the culture fluid were collected using each ELISA kit. After performing the experiment according to the manufacturer's instructions, the absorbance at 450 nm was measured and analyzed using a microplate reader.

human GST-CLK1 (129-end) = target: T1, human GST-CLK1 (129-end) (Homo sapiens, UniProt P49759); assay: GST-CLK1 enzyme inhibition, ADP-Glo kinase assay; format: biochemical; details: ATP 10 uM
T1 construct: purified human GST-CLK1 (129-end, Signalchem) enzyme; GST; purchased Signalchem
Method in brief: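 ADP formation was read by ADP-Glo luminescence after 1 h at 25° C with 3 ng human GST-CLK1 (129-end), substrate and 10 uM ATP in Tris pH 7.4 buffer containing MgCl2, BSA and DTT. Inhibition relative to untreated solvent control gave IC50 (nM), run in triplicate.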

LRRK2 = LRRK2 (Homo sapiens, UniProt Q5S007); assay: LRRK2 enzyme inhibition, ADP-Glo kinase assay; format: biochemical; parameters: purchased Invitrogen PR8604B
Method in brief: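 ADP-Glo luminescence read after 2 h at 25° C, 10 μM ATP, 25 ng purified human LRRK2 and […] substrate in Tris-HCl pH7.4 buffer with MgCl2, BSA, DTT. Twelve final concentrations, 50 μM down to 0.000001024 μM; IC50 (nM) from inhibition relative to untreated solvent control.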

LRRK2 (G2019S) = LRRK2 (G2019S) (Homo sapiens, UniProt Q5S007, G2019S); assay: LRRK2 G2019S enzyme inhibition, ADP-Glo kinase assay; format: biochemical; parameters: purchased SignalChem L10-12GG
Method in brief: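 Activity read as ADP-Glo luminescence, normalized to untreated solvent control, with IC50 (nM) fitted over 12 final compound levels (top 50 μM). Reaction: 2 h, 25° C, human LRRK2 G2019S 16 ng, ATP 25 μM, substrate 0.2 μg, in Tris-HCl pH 7.4 with MgCl2, BSA and DTT.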

TNF-α = TNF-α secretion inhibition in LPS-treated THP-1 cells (ELISA); format: cell-based; details: Homo sapiens, compound 0.5 μM, LPS 500 ng/ml, 24 hours, read-out: THP-1/TNF-a (% inhib)
Procedure: as §1

[1] = target: T2, human GST-DYRK1A (full length) (Homo sapiens, UniProt Q13627); assay: GST-DYRK1A enzyme inhibition, ADP-Glo kinase assay; format: biochemical; details: read-out: DYRK1 IC50
T2 construct: purified human GST-DYRK1A (full length, Thermo scientifics) enzyme; GST; purchased Thermo scientifics
Method in brief: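 ADP-Glo luminescence quantified kinase activity after a 1 h, 25° C reaction of 10 ng full-length GST-tagged human DYRK1A, substrate and 10 uM ATP in Tris-HCl buffer pH 7.4 with MgCl2, BSA and DTT. Triplicate IC50 values (nM) calculated relative to untreated solvent control.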

[2] = target: T3, LRRK2, LRRK2 (G2019S), DYRK1, CLK1 and TTK kinases (Homo sapiens, UniProt Q13627); assay: Enzyme IC50 by Kinase HotSpot service (Reaction Biology Corporation), values marked with *; format: biochemical; details: DYRK1, ATP 10 uM
T3 construct: other: DYRK1; Kinase HotSpot service (Reaction Biology), ATP 10 uM
Procedure: Meanwhile, the enzyme IC50 measurement for some compounds was performed using Kinase HotSpot service (Reaction Biology Corporation); during the test, the ATP concentration was 10 uM, where all were conducted under the same condition; and the concentration of the compound was measured by giving a 3-fold concentration gradient with the highest concentration of […], where the values measured using Kinase HotSpot service (Reaction Biology Corporation) were marked with “*”.
All experimental methods were performed as provided in Kinase HotSpot Customer Protocol (http://www.reactionbiology.com//Kinase_Assay_Protocol).
In the table below, the following designations were used for the evaluation of enzyme inhibitory ability.

MDA-MB-231 cell line = assay: MDA-MB-231 cancer cell proliferation inhibition (Cell Titer-Glo); format: cell-based; details: Homo sapiens, MDA-MB-231 triple-negative breast cancer cell line, 72 hours
Method in brief: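 GI50 comes from CellTiter-Glo luminescence, read 10 min after reagent addition at RT, following 72 h compound treatment. Eleven concentrations were used (⅓ steps, highest 10 μM final) on 2000 cells/well. MDA-MB-231 and MDA-MB-468 were grown in DMEM, SHP-77 in RPMI.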

human DYRK1A and Tau = assay: Tau phosphorylation inhibition, ClariCELL Kinase Cell-Based Assay (Carnabio)
Method in brief: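 HEK293 cells transiently expressing human DYRK1A and Tau were exposed to compound, then lysed. Released Tau was captured on plate and its phosphorylation quantified by ELISA with a phospho-Tau-specific antibody.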

T1 sequence (P49759 129-484 limits assumed): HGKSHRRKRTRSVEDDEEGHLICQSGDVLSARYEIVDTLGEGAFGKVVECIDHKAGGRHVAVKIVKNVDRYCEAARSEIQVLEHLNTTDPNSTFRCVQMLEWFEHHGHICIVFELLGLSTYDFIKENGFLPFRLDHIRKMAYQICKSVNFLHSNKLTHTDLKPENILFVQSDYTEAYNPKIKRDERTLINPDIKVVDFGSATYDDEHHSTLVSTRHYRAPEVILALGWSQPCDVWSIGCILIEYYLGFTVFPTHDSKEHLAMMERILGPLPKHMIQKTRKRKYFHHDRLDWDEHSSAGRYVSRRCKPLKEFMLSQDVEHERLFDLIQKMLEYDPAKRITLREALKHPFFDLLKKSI
Sequence of LRRK2 (Q5S007 970-2527 limits assumed): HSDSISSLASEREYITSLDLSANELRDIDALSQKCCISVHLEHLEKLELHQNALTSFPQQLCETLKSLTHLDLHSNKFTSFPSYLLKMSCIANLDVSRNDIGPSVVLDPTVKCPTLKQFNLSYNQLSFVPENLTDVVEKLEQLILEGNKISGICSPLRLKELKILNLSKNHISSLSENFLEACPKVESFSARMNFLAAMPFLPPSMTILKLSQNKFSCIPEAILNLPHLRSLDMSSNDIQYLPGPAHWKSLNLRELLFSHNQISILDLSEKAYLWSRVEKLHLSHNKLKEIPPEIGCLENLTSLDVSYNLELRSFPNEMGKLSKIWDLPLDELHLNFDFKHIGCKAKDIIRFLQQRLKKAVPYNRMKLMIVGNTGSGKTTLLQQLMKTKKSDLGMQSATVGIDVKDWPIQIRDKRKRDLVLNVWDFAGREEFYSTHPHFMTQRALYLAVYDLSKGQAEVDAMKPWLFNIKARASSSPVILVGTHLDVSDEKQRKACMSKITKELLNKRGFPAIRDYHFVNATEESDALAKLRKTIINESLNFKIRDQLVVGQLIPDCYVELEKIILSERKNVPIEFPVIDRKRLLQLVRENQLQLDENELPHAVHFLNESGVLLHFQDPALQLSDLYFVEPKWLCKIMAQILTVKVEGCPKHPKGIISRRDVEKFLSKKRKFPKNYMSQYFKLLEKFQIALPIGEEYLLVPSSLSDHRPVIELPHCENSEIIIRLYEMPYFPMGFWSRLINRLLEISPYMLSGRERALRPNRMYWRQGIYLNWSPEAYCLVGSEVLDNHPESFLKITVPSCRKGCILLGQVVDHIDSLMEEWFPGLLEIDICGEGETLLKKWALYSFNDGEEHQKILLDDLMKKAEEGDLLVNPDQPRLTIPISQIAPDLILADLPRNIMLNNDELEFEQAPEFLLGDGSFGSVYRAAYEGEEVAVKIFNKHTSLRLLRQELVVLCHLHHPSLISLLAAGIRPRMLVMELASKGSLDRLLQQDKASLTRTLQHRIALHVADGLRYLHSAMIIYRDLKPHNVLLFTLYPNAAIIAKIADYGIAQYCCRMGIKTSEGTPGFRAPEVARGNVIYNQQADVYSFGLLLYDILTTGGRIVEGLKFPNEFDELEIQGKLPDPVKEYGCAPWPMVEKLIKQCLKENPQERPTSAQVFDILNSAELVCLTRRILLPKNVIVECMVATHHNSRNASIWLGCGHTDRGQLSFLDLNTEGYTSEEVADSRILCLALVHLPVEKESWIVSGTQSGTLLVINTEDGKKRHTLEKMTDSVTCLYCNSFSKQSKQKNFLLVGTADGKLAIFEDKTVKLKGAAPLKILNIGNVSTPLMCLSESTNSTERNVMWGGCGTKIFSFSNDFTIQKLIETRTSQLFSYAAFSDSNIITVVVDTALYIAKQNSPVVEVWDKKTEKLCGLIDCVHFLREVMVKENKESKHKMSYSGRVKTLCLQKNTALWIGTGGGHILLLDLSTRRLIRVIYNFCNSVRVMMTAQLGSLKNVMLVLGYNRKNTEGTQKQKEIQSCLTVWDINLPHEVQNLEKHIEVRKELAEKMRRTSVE
Sequence of LRRK2 (G2019S) (Q5S007 970-2527 G2019S limits assumed): as the sequence (Q5S007 970-2527 limits assumed) above, with G1050S counted along it

IC50 (human GST-CLK1 (129-end)) | IC50 (LRRK2) | IC50 (LRRK2 (G2019S)) | IC50 [1] | IC50 [2] | GI50 (MDA-MB-231 cell line) | SMILES | inhibition at 0.5 µM (IL-6) | inhibition at 0.5 µM (TNF-α) | inhibition at 0.25 µM (human DYRK1A and Tau) | inhibition at 0.5 µM (human DYRK1A and Tau) | inhibition at 1 µM (human DYRK1A and Tau)
< 100 nM | < 100 nM | < 100 nM | < 100 nM |  |  | CS(=O)(=O)CCNc1cc(Nc2ccc(C(=O)N3CCOCC3)c3c2OCCO3)nc2[nH]cc(C(F)(F)F)c12 [Example 157, (8-((4-((2-(methylsulfonyl)ethyl)amino)-3-(trifluoromethyl)-1H-pyrrolo[2,3-b]pyridin-6-yl)amino)-2,3-dihydrobenzo [b] [1,4]dioxin-5-yl)(morpholino) methanone] | 29.1% | 31% |  |  | 
< 100 nM | 101 to 300 nM | 101 to 300 nM | 101 to 300 nM |  |  | CCNc1cc(Nc2ccc(C(=O)N3CC[C@@H](N4CCOCC4)C3)c3c2OCC3)nc2[nH]cc(C(F)(F)F)c12 [Example 213, (R)-(7-((4-(ethylamino)-3-(trifluoromethyl)-1H-pyrrolo[2,3-b]pyridin-6-yl)amino)-2,3-dihydrobenzofuran-4-yl)(3-morpholinopyrrolidin-1-yl)methanone] | 3.9% | 2.6% |  |  | 
< 100 nM |  | < 100 nM | < 100 nM |  |  | CCNc1cc(Nc2ccc(C(=O)N3CCC(N4CCN(C5CC5)CC4)CC3)c3c2OCC3)nc2[nH]cc(C(F)(F)F)c12 [Example 264, (4-(4-cyclopropylpiperazin-1-yl)piperidin-1-yl)(7-((4-(ethylamino)-3-(trifluoromethyl)-1H-pyrrolo[2,3-b]pyridin-6-yl)amino)-2,3-dihydrobenzofuran-4-yl)methanone] | 45.5% | 11.2% |  |  | 
< 100 nM |  | < 100 nM | < 100 nM |  |  | CCNc1cc(Nc2ccc(C(=O)N3CCN(CC4CC4)CC3)c3c2OCC3)nc2[nH]cc(C(F)(F)F)c12 [Example 257, (4-(cyclopropylmethyl)piperazin-1-yl)(7-((4-(ethylamino)-3-(trifluoromethyl)-1H-pyrrolo[2,3-b]pyridin-6-yl)amino)-2,3-dihydrobenzofuran-4-yl)methanone] | 44% | 7.88% |  |  | 
< 100 nM | 101 to 300 nM | < 100 nM | < 100 nM |  |  | CNc1cc(Nc2ccc(C(=O)N3CCOCC3)c3c2OCO3)nc2[nH]cc(C(F)(F)F)c12 [Example 38, (7-((4-(methylamino)-3-(trifluoromethyl)-1H-pyrrolo[2,3-b]pyridin-6-yl)amino)benzo [d] [1,3]dioxol-4-yl)(morpholino) methanone] | 36.1% | 32.8% |  |  | 
< 100 nM |  | < 100 nM | < 100 nM |  |  | CCNc1cc(Nc2ccc(C(=O)N3CCN(CCO)CC3)c3c2OCC3)nc2[nH]cc(C(F)(F)F)c12 [Example 253, (7-((4-(ethylamino)-3-(trifluoromethyl)-1H-pyrrolo[2,3-b]pyridin-6-yl)amino)-2,3-dihydrobenzofuran-4-yl)(4-(2-hydroxyethyl)piperazin-1-yl)methanone] | 49.2% | 9.83% |  |  | 
< 100 nM | < 100 nM | < 100 nM | < 100 nM |  |  | COCCNc1cc(Nc2ccc(C(=O)N3CCOCC3)c3c2OCC3)nc2[nH]cc(C(F)(F)F)c12 [Example 54, (7-((4-((2-methoxyethyl)amino)-3-(trifluoromethyl)-1H-pyrrolo[2,3-b]pyridin-6-yl)amino)-2,3-dihydrobenzofuran-4-yl)(morpholino) methanone] | 46.9% |  |  |  | 
301 to 1000 nM |  |  |  | < 100 nM |  | COc1cc(P(C)(C)=O)ccc1Nc1cc(C2CC2)c2c(C(F)(F)F)c[nH]c2n1 [Example 219, (4-((4-cyclopropyl-3-(trifluoromethyl)-1H-pyrrolo[2,3-b]pyridin-6-yl)amino)-3-methoxyphenyl) dimethylphosphine oxide] |  |  |  |  | 
< 100 nM | < 100 nM |  | < 100 nM |  | 301 to 1000 nM | CNc1cc(Nc2ccc(P3(=O)CCN(C4COC4)CC3)cc2OC)nc2[nH]cc(C(F)(F)F)c12 [Example 212, 4-(3-methoxy-4-((4-(methylamino)-3-(trifluoromethyl)-1H-pyrrolo[2,3-b]pyridin-6-yl)amino)phenyl)-1-(oxetan-3-yl)-1,4-azaphosphinane 4-oxide] | 29.1% | 2.7% |  |  | 
< 100 nM |  | < 100 nM | < 100 nM |  |  | CCNc1cc(Nc2ccc(C(=O)N3CCC(N(C)C)CC3)c3c2OCC3)nc2[nH]cc(C(F)(F)F)c12 [Example 249, (4-(dimethylamino)piperidin-1-yl)(7-((4-(ethylamino)-3-(trifluoromethyl)-1H-pyrrolo[2,3-b]pyridin-6-yl)amino)-2,3-dihydrobenzofuran-4-yl)methanone] | 60.3% | 10.1% | 62.4% | 76.9% | 82.9%
< 100 nM |  | < 100 nM | < 100 nM |  |  | CCNc1cc(Nc2ccc(C(=O)N3CCC(N4CCN(C)CC4)CC3)c3c2OCC3)nc2[nH]cc(C(F)(F)F)c12 [Example 247, (7-((4-(ethylamino)-3-(trifluoromethyl)-1H-pyrrolo[2,3-b]pyridin-6-yl)amino)-2,3-dihydrobenzofuran-4-yl)(4-(4-methylpiperazin-1-yl)piperidin-1-yl)methanone] | 31.9% | 15.5% | 52.3% | 76.8% | 104%
301 to 1000 nM |  |  |  | < 100 nM |  | COc1cc(P2(=O)CCN(C3CCOCC3)CC2)ccc1Nc1cc(C2CC2)c2c(C(F)(F)F)c[nH]c2n1 [Example 102, 4-(4-((4-cyclopropyl-3-(trifluoromethyl)-1H-pyrrolo[2,3-b]pyridin-6-yl)amino)-3-methoxyphenyl)-1-(tetrahydro-2H-pyran-4-yl)-1,4-azaphosphinane 4-oxide] |  |  |  |  | 
< 100 nM | < 100 nM |  | < 100 nM |  |  | CNc1cc(Nc2ccc(C(=O)N3CCC(N4CCOCC4)CC3)c3c2OCO3)nc2[nH]cc(C(F)(F)F)c12 [Example 235, (7-((4-(methylamino)-3-(trifluoromethyl)-1H-pyrrolo[2,3-b]pyridin-6-yl)amino)benzo[d][1,3]dioxol-4-yl)(4-morpholinopiperidin-1-yl)methanone] | 22.9% | 36.3% |  |  | 
